Data as given in ChEMBL document CHEMBL1150986, “Tripeptidyl pyridinium methyl ketones as potent active site inhibitors of thrombin” (Bioorg Med Chem Lett, 1996).

Key:
Prothrombin [1] = target: T1, Prothrombin (Homo sapiens, UniProt P00734); assay: Compound was measured for the inhibition of alpha-human thrombin by amidolytic assay
Prothrombin [2] = target: T1, Prothrombin; assay: Compound was measured for the inhibition of alpha-human thrombin by clotting test

Row | SMILES | IC50 (Prothrombin [1]) | Ki (Prothrombin [2])
1 | CC(=O)N[C@H](CC1CCCCC1)C(=O)N1CCC[C@H]1C(=O)N[C@@H](CCCN=C(N)N)C(=O)Cc1ccccc1 | 630 nM | 185 nM
2 | CC(=O)N[C@H](Cc1ccccc1)C(=O)N1CCC[C@H]1C(=O)N[C@@H](CCCNC(=N)N)C(=O)C[n+]1ccccc1 | 2700 nM | 310 nM
3 | N=C(N)NCCC[C@H](NC(=O)[C@@H]1CCCN1C(=O)[C@H](N)CC1CCCCC1)C(=O)Cc1ccccc1 | 9.9 nM | 1.25 nM
4 | N=C(N)NCCC[C@H](NC(=O)[C@@H]1CCCN1C(=O)[C@H](N)CC1CCCCC1)C(=O)C[n+]1ccccc1 | 1.7 nM | 0.19 nM

The next lines start with the values.

Row | IC50 (Prothrombin [1]) | Ki (Prothrombin [2]) | SMILES
5 | 410 nM | 60 nM | CC(=O)[C@H](CCCN=C(N)N)NC(=O)[C@@H]1CCCN1C(=O)[C@H](N)CC1CCCCC1
6 | 180 nM | 21 nM | CC(=O)N[C@H](CC1CCCCC1)C(=O)N1CCC[C@H]1C(=O)N[C@@H](CCCN=C(N)N)C(=O)C[n+]1ccccc1
